Patent publication US10301325B2, “Quinoline derivative, and pharmaceutical composition, preparation method and use thereof” (SHANGHAI HAIJU BIOLOGICAL TECHNOLOGY CO., LTD., priority 2015, dated 2019)
pIC50: −log10 of the molar value.

Experiments:
[1] = tested on: human gastric cancer cells SNU-5 with high expression of c-Met; experiment: c-Met cell proliferation inhibition test (CCK-8, 72 hours); assay type: cell-based; details: SNU-5 cells
Experimental: The inhibitory activity of the test compound on proliferation of human gastric cancer cells SNU-5 with high expression of c-Met was determined through the following in vitro cell assay, and the activity can be expressed by IC50 value. Specific experimental method can refer to Neru Munshi, Sebastien Jeay, Youzhi Li, et al., ARQ 197, a Novel and Selective Inhibitor of the Human c-Met Receptor Tyrosine Kinase with Antitumor Activity. Mol Cancer Ther 2010; 9:1544-1553, the content of which is incorporated herein by reference in its entirety. The general method is as follows: first, human tumor cells SNU-5 (purchased from the Institute of Biochemistry and Cell Biology) with high expression of c-Met was selected and inoculated on a 96-well culture plate at a suitable cell concentration (e.g., 5000 cells/ml culture medium), then they were diluted with IMDM culture medium containing 2% FBS to form a series of test compound solutions at gradient concentrations (generally 6 to 7 concentrations) and continuously incubated for 72 hours. After 72 hours, the activity of the test compound on inhibiting cell proliferation could be determined using the Cell Counting Kit-8 (CCK-8, purchased from DojinDo) method. The IC50 value can be calculated from the inhibitory values on cell proliferation of the test compound at a series of different concentrations.

[2] = target: c-Met kinase (Homo sapiens, UniProt P08581); experiment: c-Met kinase activity assay (HTRF); assay type: biochemical; details: c-Met kinase from Carna Biosciences, read-out: IC50 (c-Met/BIO)
c-Met kinase, sequence (P08581 25-1390): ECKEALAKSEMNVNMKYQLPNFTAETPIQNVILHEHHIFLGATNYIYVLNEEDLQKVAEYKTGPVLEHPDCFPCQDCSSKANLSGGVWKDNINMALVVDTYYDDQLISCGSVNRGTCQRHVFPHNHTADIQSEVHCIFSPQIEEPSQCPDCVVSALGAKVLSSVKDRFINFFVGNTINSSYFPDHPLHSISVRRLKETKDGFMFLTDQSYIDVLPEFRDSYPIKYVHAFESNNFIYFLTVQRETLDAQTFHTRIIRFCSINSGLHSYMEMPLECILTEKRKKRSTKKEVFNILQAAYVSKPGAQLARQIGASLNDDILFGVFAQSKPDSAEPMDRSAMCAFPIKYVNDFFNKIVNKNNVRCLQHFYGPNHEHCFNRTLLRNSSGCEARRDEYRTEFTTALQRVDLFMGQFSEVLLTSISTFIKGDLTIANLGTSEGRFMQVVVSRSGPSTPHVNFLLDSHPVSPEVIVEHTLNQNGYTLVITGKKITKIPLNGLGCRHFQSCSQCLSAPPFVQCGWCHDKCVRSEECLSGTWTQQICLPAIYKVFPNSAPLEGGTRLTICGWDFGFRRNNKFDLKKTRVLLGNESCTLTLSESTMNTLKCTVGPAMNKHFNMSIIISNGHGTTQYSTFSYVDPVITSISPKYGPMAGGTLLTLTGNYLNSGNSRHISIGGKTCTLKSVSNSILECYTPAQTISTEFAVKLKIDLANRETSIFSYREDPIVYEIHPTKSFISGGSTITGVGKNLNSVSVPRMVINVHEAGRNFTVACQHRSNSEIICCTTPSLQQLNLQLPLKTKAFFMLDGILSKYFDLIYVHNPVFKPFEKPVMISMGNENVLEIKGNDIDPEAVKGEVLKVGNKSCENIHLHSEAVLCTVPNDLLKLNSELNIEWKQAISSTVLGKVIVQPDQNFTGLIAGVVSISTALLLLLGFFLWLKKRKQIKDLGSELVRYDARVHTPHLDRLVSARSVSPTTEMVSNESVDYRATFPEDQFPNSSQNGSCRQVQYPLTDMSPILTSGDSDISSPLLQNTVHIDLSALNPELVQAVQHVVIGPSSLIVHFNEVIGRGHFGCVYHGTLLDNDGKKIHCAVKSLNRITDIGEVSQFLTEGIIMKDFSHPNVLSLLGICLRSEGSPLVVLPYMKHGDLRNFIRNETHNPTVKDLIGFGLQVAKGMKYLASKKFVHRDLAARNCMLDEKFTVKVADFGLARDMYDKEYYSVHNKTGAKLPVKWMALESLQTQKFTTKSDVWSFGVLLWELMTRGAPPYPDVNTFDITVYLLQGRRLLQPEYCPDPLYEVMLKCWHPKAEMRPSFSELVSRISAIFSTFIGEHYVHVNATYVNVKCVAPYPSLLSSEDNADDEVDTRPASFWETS
Experimental: The inhibitory ability of the compounds of the present invention on c-Met kinase activity was determined by Homogeneous Time-Resolved Fluorescence (HTRF), and was expressed by the median inhibitory concentration IC50 value of the compounds. The method was as follows: a series of compounds with gradient concentration were incubated with a specific concentration of the enzyme solution for 5 minutes at room temperature, after which an appropriate amount of enzyme reaction substrate and ATP were added to start the enzyme reaction process. After 30 minutes, an appropriate amount of stop solution and detection solution were added, and the mixture was incubated for 1 hour. Then, the enzyme activity at specific compound concentrations was measured at wavelengths of 665 nm and 620 nm on Envision 2104 Multilabel Microcell Detector of PerkinElmer Company, and the inhibitory activity of the compound at different concentrations on enzyme activity was calculated, then the result was fitted to calculate the IC50 value. The c-Met kinase used in this embodiment was purchased from Carna Biosciences, the test kit HTRF KinEASE-TK was purchased from Cisbio Bioassays Company, and ATP was purchased from Sigma Aldrich Company.

SMILES | pIC50 [1] | pIC50 [2]
CN1C(=O)COc2c1cnc1cc(F)c(C(F)(F)c3nnc4ccc(-c5cnn(C)c5)nn34)cc21 [Embodiment 1, 9-{difluoro(6-(1-methyl-1H-pyrazol-4-yl)-[1,2,4]triazolo[4,3-b]pyridazin-3-yl)methyl}-8-fluoro-4-methyl-2H-[1,4]oxazino[3,2-c]quinolin-3(4H)-one] | 8.92 | 9.00
CN1C(=O)COc2c1cnc1cc(F)c(Sc3nnc4ccc(-c5cnn(C)c5)nn34)cc21 [Embodiment 2, 8-fluoro-4-methyl-9-{[6-(1-methyl-1H-pyrazol-4-yl)-[1,2,4]triazolo[4,3-b]pyridazin-3-yl]sulfanyl}-2H-[1,4]oxazino[3,2-c]quinolin-3 (4H)-one] | 8.55 | 8.66
Cn1cc(-c2ccc3nnc(C(F)(F)c4ccc5ncccc5c4)n3n2)cn1 [JNJ-38877605, reference compound] | 8.33 | 8.31
